The text below walks through data of patent US20210196714A1, “COMPOSITIONS AND METHODS FOR TREATING DISORDERS CHARACTERIZED WITH ABERRANT RAS/MAPK SIGNALING” (Duke University, priority 2018, published 2021).

Entries after “also recorded” stand apart in the source; their conditions may differ.

Data set [1] deals with zebrafish kmt2d morphants. Briefly: Jaw defect (MK-CH cartilage distance, Alcian blue) in kmt2d morphants. It counts as in vivo. The note with it: for jaw defect, distance between MK and CH cartilages: 100 nM, 5 dpf. As to the method:
To test the first criterion, the CE rescue paradigm was repeated four times by two different investigators, each using independent zebrafish adult stocks.
Morpholinos (MO) were obtained from Gene Tools (Gene Tools, LLC, Philomath, Oreg., USA) and have been described previously (see, Bogershausen, N. et al. J Clin Invest 125, 3585-99 (2015)); kmt2d-MO: 5′-[…]-3′(SEQ ID NO: 1) (5 ng); kdm6a-MO: 5′-[…] (SEQ ID NO: 2) (10 ng). kmt2d-MO and kdm6a-MO was injected into wild type (WT) Ekkwill (EK) zebrafish embryos obtained from natural matings at the 1-4 cell stage. CRISPR target sequences (rap1a: 5′-[…]-3′ (SEQ ID NO: 3) [120 pg], rap1b: 5′-[…]-3′ (SEQ ID NO: 4) [120 pg] (see, Bogershausen, N. et al. J Clin Invest 125, 3585-99 (2015)), and kmt2d: 5′-[…] (SEQ ID NO: 5) [50 pg]) were identified by crispr.mit.edu and cloned into pT7-gRNA (Addgene, Cambridge, USA) following the protocol described in http://www.addgene.org/crispr/Chen/. Guide (g)RNAs were synthesized using the T7 MEGAshortscript kit (ThermoFisher Scientific). An injection solution of gRNA plus 100 pg Cas9 protein (PNA Bio) was injected into wild type Ekkwill (EK) zebrafish embryos obtained from natural matings at the 1-cell stage. Embryos were treated with compound at the 8-cell stage. All compounds were dissolved in dimethyl sulfoxide (DMSO; 10 mM), and subsequently diluted with water to 100 μM. Using egg water, we then diluted the 100 μM solution to the concentration specific to each experiment in egg water. Embryos were incubated at 28.5° C. and egg water containing compound was replaced daily until phenotyping, mass spectrometry, or immunoblotting analysis.
For convergence and extension (CE) phenotyping, embryos were scored as described (see, Leitch, C. C. et al. Nat Genet 40, 443-8 (2008)) at the 8-10 somite stage, and images were captured using an AZ100 microscope and NIS Elements software (Nikon). To assess mandibular phenotypes, Alcian blue staining was used to stain cartilage structures in 5 dpf larvae as described (see, Chassaing, N. et al. J Med Genet 49, 373-9 (2012)). Stained larvae were imaged in glycerol using an SMZ745T stereomicroscope (Nikon). The distance between Meckel's (MK) and ceratohyal (CH) cartilages was measured on ventral bright field images with Image J (NIH). For brain cell proliferation assays, injected embryos were fixed in Dent's solution at 2 dpf. […] Fluorescence signal on embryo heads was imaged with the Nikon AZ100 microscope and DS-Qi1MC digital camera using […] Z-stacks to generate extended depth of focus images. Cell numbers were quantified using the ImageJ ICTN plugin (NIH). […]

The nature of data set [2]: Mass spectrometry of compound exposure in zebrafish embryos. The note with it: for detection of compound in embryos by MS: bathing, 100 nM or 1 μM, five days. The format is in vivo. As to the method:
FIG. 5: Successful delivery of small molecules into zebrafish embryos. (a) Experimental design and sample preparation for the mass spectrometry (MS) analysis of compound concentration. (b) Quantitative MS analysis results of compound exposure in embryos. The right-most two columns give the concentrations of each compound detected by MS in zebrafish, quantifying in vivo exposures resulting from egg water compound doses of 100 nM and 1 μM.
For this purpose, mass spectrometry (MS) was performed in embryos treated with each of compounds 2 and 8. Wild-type embryos were treated with 100 nM (the concentration used for the rescue experiments) or 1 μM (as a positive detection threshold given that the intracellular concentration of each compound is unknown at the beginning of the experiment). After five days of treatment, embryos were harvested and subjected to MS analysis (FIG. 5A).
WT EK embryos were transferred to a 12-well plate at the 8-cell stage and bathed in egg water containing 0.001% DMSO or 100 nM of each compound (n=30/condition). Embryos were incubated at 28° C.; egg water containing compound was refreshed every 24 hours until harvest. Compound exposure was assessed essentially as described (see, Berghmans, S. et al. J Pharmacol Toxicol Methods 58, 59-68 (2008)); larvae were anaesthetized on ice, washed once with fresh compound-free ice-cold egg water, washed once with ice-cold PBS, and then transferred to a microfuge tube and centrifuged briefly before removing all excess liquid. Samples were macerated using a plastic pestle and frozen at −20° C. prior to analysis. Mass spectrometry analysis was conducted at Covance Laboratories (Cary, N.C., USA). Briefly, the macerated larvae were diluted in 1 ml water/acetonitrile (50/50), sonicated for 3×10 s and vortexed. For all compounds, a control sample containing embryos exposed to 0.001% DMSO was analyzed as a control. Calibration curves were generated by spiking aliquots of control zebrafish homogenate (prepared as described above) with known amounts of compound 29 (N3521-4-2).

Consider `CC(C)c1nc(-c2cccc(NS(=O)(=O)c3c(F)cccc3F)c2F)c(-c2ccnc(N)n2)s1` [Compound 8, desmethyl-Dabrafenib], for which the “jaw defect, distance between MK and CH cartilages” value in data set [1] is recorded as “ameliorates this defect; also recorded: rescue significantly”; in data set [1] (listed as dmDf), “able to rescue the jaw layout”. Besides, the “jaw rescue at dosages beyond 100 nM” value in data set [1] (dose response, above 100 nM up to 1 μM) was “higher dosages did not improve efficacy any further”. Further, the “exposure of inhibitor in embryos (MS quantitation)” value in data set [2] (100 nM dose) is recorded as “sub-nanomolar”. For the same molecule, the concentration at 5 days in data set [2] (EK (wild-type), zebrafish, whole embryo/larva homogenate, other: bathing in egg water containing compound, egg water dose 100 nM, read-out: effective in vivo exposure (MS)) was 0.26 nM. Moreover, in data set [2], the “detection of compound in embryos by MS” value was “Detectable concentrations”.
`CC[C@@H](CO)Nc1ncc(C)c(-c2c[nH]c(C(=O)N[C@H](CO)c3cccc(Cl)c3)c2)n1` [Compound 2, N-((S)-1-(3-chlorophenyl)-2-hydroxyethyl)-4-(2-(((S)-1-hydroxybutan-2-yl)amino)-5-methylpyrimidin-4-yl)-1H-pyrrole-2-carboxamide]: the “jaw defect, distance between MK and CH cartilages” value in data set [1] is recorded as “ameliorates this defect; also recorded: rescue significantly”. The “detection of compound in embryos by MS” value in data set [2] was “Detectable concentrations”.
